Test results reported in US12644117B2, “Method of enabling pooled-library based nucleic acid constructs screening” (priority 2019, dated 2026).

Tested on: recombinant ACMNPV baculovirus
Assay: Baculovirus spreading in Sf9 insect cells infected with YFP-expressing recombinant baculovirus, read by fluorescence microscopy
Assay type: cell-based, Spodoptera Frugiperda
Experimental: A recombinant ACMNPV baculovirus was generated by homologous recombination and expressed a target fluorescent protein. The fluorescent protein was the Yellow Fluorescent Protein (YFP) from the organism Aequorea Victoria. • Three hours before infection 0.5 million Sf9 insect cells (ThermoFisher) were seeded into two wells of a 6 well-plate (ThermoFisher). Sf9 cells are cultivated in sf900 II media (ThermoFisher). • The initial viral stock titer was estimated to be approximately 1 million baculoviruses per milliliter. The recombinant baculovirus was added to the cells to reach a MOI of approximately 0.02. The added virus volume per well was 10 micolitre. The virus was resuspended in sf900 II media (ThermoFisher). • Cells were incubated in a 27° C. incubator. Four hours after infection, attached cells are washed with PBS to remove baculoviruses which have not penetrated into cells. The wash consisted of three times with 1 ml per cell of PBS media. • Chloroquine diphosphate salt (CC6628 from Sigma) was added to a final concentration of 0.8 mM. In the control condition insect cell media without chloroquine was added to the cells. Cells were incubated in a 27° C. incubator.
Fluorescence microscopy was performed 2 days after infection (FIG. 2A).
In the presence of chloroquine, the proportion of fluorescent cells is constant despite an increase of fluorescence intensity by cell (FIG. 2B), indicating accumulation of expressed YFP protein and virus without increasing the number of infected cells. […] In addition the virus produced high quality protein correctly folded within the individual cells.

[1] = MOI approximately 0.02, chloroquine 0.8 mM, five days after infection (FIG. 2B)

CCN(CC)CCCC(C)Nc1ccnc2cc(Cl)ccc12 (stereo not drawn) [chloroquine, Chloroquine]
proportion of fluorescent cells (MOI approximately 0.02, chloroquine 0.8 mM added four hours after infection, 2 days after infection (FIG. 2A)): around 1% | fluorescence intensity by cell (accumulation of expressed YFP protein) [1]: increase | proportion of fluorescent cells [1]: constant
